Results as given in patent US20070191336A1 (priority 2003, published 2007).

Target: T1, phospho p-38 alpha kinase (Homo sapiens, UniProt Q16539)
T1 construct: purchased Panvera
Test: P-38 alpha kinase assay (spectrophotometric, pyruvate kinase/lactate dehydrogenase coupled)
Type: biochemical
Settings: for inhibition at 0.1 µM / inhibition at 1 µM / inhibition at 10 µM: read-out: % Inhibition @ concentration, Table 3; for IC50: Table 3, rates from […] to 2 h time frame
Method: In this assay, the oxidation of NADH was continuously measured spectrophometrically. […] The reaction was initiated by adding ATP. The absorption at 340 nm was monitored continuously for up to 4 hours at 30° C. on Polarstar Optima plate reader (BMG). The kinase activity (reaction rate) was calculated from the slope at the time frame from 1.5 h to 2 h.
For inhibition determinations, test compounds were incubated with the reaction mixture for ˜5 min before adding ATP to start the reaction. […] IC50 values were calculated from a series of % inhibition values determined at a range of concentrations of each inhibitor using Prism to process the data and fit inhibition curves. Generally, the rates obtained at the time frame of 1.5 h to 2 h were used for these calculations.

T1 sequence (Q16539 whole entry): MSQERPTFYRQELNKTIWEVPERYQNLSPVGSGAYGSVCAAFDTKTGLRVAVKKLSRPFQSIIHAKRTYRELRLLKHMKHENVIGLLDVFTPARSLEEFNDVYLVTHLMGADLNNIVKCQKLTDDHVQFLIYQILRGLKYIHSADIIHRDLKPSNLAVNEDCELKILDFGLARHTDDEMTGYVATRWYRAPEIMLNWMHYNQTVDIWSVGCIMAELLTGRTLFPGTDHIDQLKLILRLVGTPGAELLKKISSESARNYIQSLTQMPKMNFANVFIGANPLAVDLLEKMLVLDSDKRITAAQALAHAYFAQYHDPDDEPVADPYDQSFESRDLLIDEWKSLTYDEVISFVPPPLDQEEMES

SMILES	IC50	other results
COc1ccc(-n2nc(C(C)(C)C)cc2NC(=O)Nc2ccccc2F)cc1 [Example 346, 1-[3-t-butyl-1-(4-methoxyphenyl)-1H-pyrazol-5-yl]-3-(2-fluorophenyl)urea]	–	inhibition at 0.1 µM: 19%; inhibition at 1 µM: 63%
COc1ccc(-n2nc(C(C)(C)C)cc2NC(=O)Nc2cccc(C(F)(F)F)c2)cc1 [Example 347, 1-[3-t-butyl-1-(4-methoxyphenyl)-1H-pyrazol-5-yl]-3-(3-trifluoromethylphenyl)urea]	–	inhibition at 0.1 µM: 8%; inhibition at 1 µM: 31%
COc1ccc(-n2nc(C(C)(C)C)cc2NC(=O)Nc2cccc(OC)c2)cc1 [Example 348, 1-[3-t-butyl-1-(4-methoxyphenyl)-1H-pyrazol-5-yl]-3-(3-methoxy-phenyl)urea]	–	inhibition at 0.1 µM: 17%; inhibition at 1 µM: 47%
COc1ccc(-n2nc(C(C)(C)C)cc2NC(=O)Nc2cccc(Cl)c2)cc1 [Example 350, 1-[3-t-butyl-1-(4-methoxyphenyl)-1H-pyrazol-5-yl]-3-(3-chlorophenyl)urea]	–	inhibition at 0.1 µM: 39%; inhibition at 1 µM: 64%
CC(C)(C)c1cc(NC(=O)Nc2ccccc2F)n(-c2cccc(CC(N)=O)c2)n1 [Example 352, 1-{1-[3-(2-amino-2-oxoethyl)phenyl]-3-t-butyl-1H-pyrazol-5-yl}-3-(2-fluorophenyl)urea]	43 nM	–
CC(C)(C)c1cc(NC(=O)Nc2cccc(F)c2F)n(-c2cccc(C#N)c2)n1 [Example 355, 1-[3-t-butyl-1-(3-cyan-phenyl)-1H-pyrazol-5-yl]-3-(2,3-difluorophenyl)urea]	42 nM	–
CC(C)(C)c1cc(NC(=O)Nc2cccc(Br)c2)n(-c2cccc(C#N)c2)n1 [Example 356, 1-(3-t-butyl-1-(3-cyanophenyl)-1H-pyrazol-5-yl)-3-(3-bromophenyl)urea]	59 nM	–
CC(C)(C)c1cc(NC(=O)Nc2ccc3c(c2)OCO3)n(-c2cccc(C#N)c2)n1 [Example 357, 1-(benzo[d][1,3]dioxol-5-yl)-3-(3-t-butyl-1-(3-cyanophenyl)-1H-pyrazol-5-yl)urea]	130 nM	–
CC(C)(C)c1cc(NC(=O)Nc2ccc(Cl)cc2)n(-c2cccc(C#N)c2)n1 [Example 358, 1-(3-t-butyl-1-(3-cyanophenyl)-1H-pyrazol-5-yl)-3-(4-chlorophenyl)urea]	100 nM	–
CC(C)(C)c1cc(NC(=O)Nc2cccc(Cl)c2Cl)n(-c2cccc(C#N)c2)n1 [Example 359]	13 nM	–
COc1cccc(NC(=O)Nc2cc(C(C)(C)C)nn2-c2cccc(C#N)c2)c1 [Example 360]	390 nM	–
CC(C)(C)c1cc(NC(=O)Nc2cccc(C(F)(F)F)c2)n(-c2cccc(C#N)c2)n1 [Example 361]	870 nM	–
CC(C)(C)c1cc(NC(=O)Nc2ccccc2F)n(-c2cccc(CCC(=O)O)c2)n1 [Example 363, 3-(3-{3-t-butyl-5-[3-(2-fluorophenyl)ureido]-11H-pyrazol-1-yl}-phenyl)propionic acid]	190 nM	–
CCOC(=O)CCc1cccc(-n2nc(C(C)(C)C)cc2NC(=O)Nc2cccc(Cl)c2Cl)c1 [Example 364, 3-(3-{3-t-butyl-5-[3-(2,3-dichlorophenyl)ureido]-1H-pyrazol-1-yl}phenyl)propionic acid ethyl ester]	10 nM	–
CC(C)(C)c1cc(NC(=O)Nc2cccc(Cl)c2Cl)n(-c2cccc(CCC(=O)O)c2)n1 [Example 365, 3-(3-{3-t-Butyl-5-[3-(2,3-dichloro-phenyl)ureido]-1H-pyrazol-1-yl}-phenyl)propionic acid]	7 nM	–
CCOC(=O)CCc1cccc(-n2nc(C(C)(C)C)cc2NC(=O)Nc2cccc3cccnc23)c1 [Example 366, 3-(3-{3-t-butyl-5-[3-(quinolin-8-yl)ureido]-1H-pyrazol-1-yl}phenyl)-propionic acid ethyl ester]	–	inhibition at 10 µM: 53%
CC(C)(C)c1cc(NC(=O)Nc2cccc3cccnc23)n(-c2cccc(CCC(=O)O)c2)n1 [Example 367, 3-(3-{3-t-butyl-5-[3-(quinolin-8-yl)ureido]-1H-pyrazol-1-yl}phenyl)-propionic acid]	–	inhibition at 10 µM: 85%
CN(C)CCc1cccc(-n2nc(C(C)(C)C)cc2NC(=O)Nc2ccc(Cl)cc2)c1 [Example 372, 1-{3-t-butyl-1-[3-(2-(dimethylamino)ethyl]phenyl}-1H-pyrazol-5-yl)-3-(4-chlorophenyl)urea]	1460 nM	–
CC(C)(C)c1cc(NC(=O)Nc2cccc(Cl)c2Cl)n(-c2cccc(CCN)c2)n1 [Example 374, 1-{1-[3-(2-aminoethyl)phenyl]-3-t-butyl-1H-pyrazol-5-yl}-3-(2,3-dichlorophenyl)urea]	37 nM	–

SMILES	IC50	other results
CC(C)(C)c1cc(NC(=O)Nc2cccc(Br)c2)n(-c2cccc(CCN)c2)n1 [Example 376, 1-{1-[3-(2-aminoethyl)phenyl]-3-t-butyl-1H-pyrazol-5-yl}-3-(3-bromophenyl)urea]	480 nM	–
CC(C)(C)c1cc(NC(=O)Nc2cccc(Cl)c2)n(-c2cccc(CCN)c2)n1 [Example 378, 1-{1-[3-(2-aminoethyl)phenyl]-3-t-butyl-1H-pyrazol-5-yl}-3-(3-chlorophenyl)urea]	400 nM	–
CC(C)(C)c1cc(NC(=O)Nc2cccc(C(F)(F)F)c2)n(-c2cccc(CCN)c2)n1 [Example 380, 1-{1-[3-(2-aminoethyl)phenyl]-3-t-butyl-1H-pyrazol-5-yl}-3-[3-(trifluoromethyl)phenyl]urea]	2000 nM	–
COc1cccc(NC(=O)Nc2cc(C(C)(C)C)nn2-c2cccc(CCN)c2)c1 [Example 382, 1-{1-[3-(2-aminoethyl)phenyl]-3-t-butyl-1H-pyrazol-5-yl}-3-(3-methoxyphenyl)urea]	880 nM	–
CN(C)CCc1cccc(-n2nc(C(C)(C)C)cc2NC(=O)Nc2cccc(Cl)c2Cl)c1 [Example 383, 1-(3-t-butyl-1-{3-[2-(dimethylamino)ethyl]phenyl}-1H-pyrazol-5-yl)-3-(2,3-di-chlorophenyl)urea]	100 nM	–
CC(C)(C)c1cc(NC(=O)Nc2cccc(Br)c2)n(-c2cccc(CN)c2)n1 [Example 384, 1-{1-[3-(aminomethyl)phenyl]-3-t-butyl-1H-pyrazol-5-yl}-3-(3-bromophenyl)urea]	–	inhibition at 1 µM: 72%; inhibition at 10 µM: 96%
CC(C)(C)c1cc(NC(=O)Nc2cccc(Cl)c2)n(-c2cccc(C#N)c2)n1 [Example 385, 1-(3-t-butyl-1-(3-cyanophenyl)-1H-pyrazol-5-yl)-3-(3-chlorophenyl)urea]	30 nM	–
CC(C)(C)c1cc(NC(=O)Nc2cccc(Cl)c2)n(-c2cccc(CN)c2)n1 [Example 386, 1-{1-[3-(aminomethyl)phenyl]-3-t-butyl-1H-pyrazol-5-yl}-3-(3-chloro-phenyl)urea]	114 nM	–
CC(C)(C)c1cc(NC(=O)Nc2cccc(C(F)(F)F)c2)n(-c2cccc(CN)c2)n1 [Example 387, 1-{1-[3-(aminomethyl)phenyl]-3-t-butyl-1H-pyrazol-5-yl}-3-(3-(trifluoro-methyl)phenyl)urea]	4450 nM	–
COc1cccc(NC(=O)Nc2cc(C(C)(C)C)nn2-c2cccc(CN)c2)c1 [Example 388, 1-{1-[3-(aminomethyl)phenyl]-3-t-butyl-1H-pyrazol-5-yl}-3-(3-methoxy-phenyl)urea]	1650 nM	–
CC(C)(C)c1cc(NC(=O)Nc2ccc(Cl)cc2)n(-c2cccc(CN)c2)n1 [Example 390, 1-{1-[3-(aminomethyl)phenyl]-3-t-butyl-1H-pyrazol-5-yl}-3-(4-chloro-phenyl)urea]	–	inhibition at 0.1 µM: 24%; inhibition at 1 µM: 63%
CC(C)(C)c1cc(NC(=O)Nc2ccc3c(c2)OCO3)n(-c2cccc(CN)c2)n1 [Example 391, 1-{1-[3-(aminomethyl)phenyl]-3-t-butyl-1H-pyrazol-5-yl}-3-(benzo-[d][1,3]dioxol-5-yl)urea]	910 nM	–
CC(C)(C)c1cc(NC(=O)Nc2cccc(Cl)c2Cl)n(-c2cccc(C(N)=O)c2)n1 [Example 392, 1-[3-t-butyl-1-(3-carbamoylphenyl)-1H-pyrazol-5-yl]-3-(2,3-dichlorophenyl)urea]	–	inhibition at 0.1 µM: 75%; inhibition at 1 µM: 86%
CC(C)(C)c1cc(NC(=O)Nc2ccc(Cl)cc2)n(-c2cccc(C(N)=O)c2)n1 [Example 393, 1-[3-t-butyl-1-(3-carbamoylphenyl)-1H-pyrazol-5-yl]-3-(4-chlorophenyl)urea]	400 nM	–
CC(C)(C)c1cc(NC(=O)Nc2cccc(F)c2F)n(-c2cccc(CO)c2)n1 [Example 395, 1-{3-t-butyl-1-[3-(hydroxymethyl)phenyl]-1H-pyrazol-5-yl}-3-(2,3-difluorophenyl)urea]	56 nM	–
CCOC(=O)c1cccc(-n2nc(C(C)(C)C)cc2NC(=O)Nc2ccc3c(c2)OCO3)c1 [Example 396, ethyl 3-{5-[3-(benzo[d][1,3]dioxo-5-yl)ureido]-3-t-butyl-1H-pyrazol-1-yl}benzoate]	–	inhibition at 0.1 µM: 3%; inhibition at 1 µM: 56%
CC(C)(C)c1cc(NC(=O)Nc2ccc3c(c2)OCO3)n(-c2cccc(CO)c2)n1 [Example 397, 1-(benzo[d][1,3]dioxol-5-yl)-3-(3-t-butyl-1-(3-(hydroxymethyl)phenyl)-1H -pyrazol-5-yl)urea]	40 nM	–
CCOC(=O)Cc1cccc(-n2nc(C(C)(C)C)cc2NC(=O)Nc2ccc3c(c2)OCO3)c1 [Example 399, ethyl 2-(3-{5-[3-(benzo[d][1,3]dioxol-5-yl)ureido]-3-t-butyl-1H-pyrazol-1-yl}phenyl)-acetate]	–	inhibition at 0.1 µM: 21%; inhibition at 1 µM: 74%
CC(C)(C)c1cc(NC(=O)Nc2ccc3c(c2)OCO3)n(-c2cccc(CCN)c2)n1 [Example 404, 1-{1-[3-(2-aminoethyl)phenyl]-3-t-butyl-1H-pyrazol-5-yl}-3-(benzo[d][1,3]dioxol-5-yl)urea]	–	inhibition at 0.1 µM: -11%; inhibition at 1 µM: 48%
